Assay [1] deals with Toxoplasma gondii RH-β1 strain. Put plainly: microbe, parasite or virus in culture. It is filed as cell-based. Particulars: Toxoplasma gondii, read-out: IC50 assessed on Toxoplama Gondii.
Assay [2] has as its system asynchronous 3D7 chloroquine-sensitive P. falciparum infected red blood cells. Put plainly: Labeled hypoxanthine incorporation assay (in vitro anti-malarial activity). It is filed as cell-based. The settings on record: Plasmodium falciparum, 3D7, Erythrocyte, read-out: IC50 assessed on Plasmodium Falciparum.
Where [3] appears, read: 3D7 chloroquine-sensitive strain, infected RBC, 48 h contact, [3H]-hypoxanthine incorporation, two independent experiments in duplicates.

Read-outs that look alike come from different tables or passages of the source.

Turning to `O=C(OC[C@H](Cc1ccccc1)N(Cc1ccccc1)Cc1ccccc1)N1CCC(n2c(=O)n(Cc3ccccc3)c3ccccc32)CC1` [Compound 70, (S)-2-(dibenzylamino)-3-phenylpropyl 4-(1-benzyl-1,2-dihydro-2-oxobenzo[d]imidazol-3-yl)piperidine-1-carboxylate], the values for the 50% inhibitory concentration (IC50) in assay [1] and in assay [2] (setting [3]) were 3.6 µM and 953 nM, respectively.

Regarding `C[C@@H](COC(=O)N1CCC(n2c(=O)n(Cc3ccccc3)c3ccccc32)CC1)N(Cc1ccccc1)Cc1ccccc1` [Compound 71, (S)-2-(dibenzylamino)propyl 4-(1-benzyl-1,2-dihydro-2-oxobenzo[d]imidazol-3-yl)piperidine-1-carboxylate], the IC50 in assay [1] was determined as 1.76 µM; in assay [2] (setting [3]), 770 nM.

Consider `C[C@@H](COC(=O)N1CCC(n2c(=O)n(CC3CCCCC3)c3ccccc32)CC1)N(Cc1ccccc1)Cc1ccccc1` [Compound 72, (S)-2-(dibenzylamino)propyl 4-(1-(cyclohexylmethyl)-1,2-dihydro-2-oxobenzo[d]imidazol-3-yl)piperidine-1-carboxylate], for which the IC50 in assay [1] stood at 1.57 µM; in assay [2] (setting [3]), 1030 nM.

In the case of `C[C@@H](COC(=O)N1CCC(n2c(=O)n(CCNC(=O)OC(C)(C)C)c3ccccc32)CC1)N(Cc1ccccc1)Cc1ccccc1` [Compound 73, (S)-2-(dibenzylamino)propyl 4-(3-(2-tert-butyloxycarbonylaminoethyl)-2-oxo-2,3-dihydro-1H-benzo[d]imidazol-1-yl)piperidine-1-carboxylate], the values for the 50% inhibitory concentration (IC50) in assay [1] and in assay [2] (setting [3]) were 3 µM and 1420 nM, respectively.

For the molecule `CC(C)(C)OC(=O)NCCn1c(=O)n(C2CCN(C(=O)OC[C@H](Cc3ccccc3)N(Cc3ccccc3)Cc3ccccc3)CC2)c2ccccc21` [Compound 74, (S)-2-(dibenzylamino)-3-phenylpropyl 4-(3-(2-tert-butyloxycarbonylaminoethyl)-2-oxo-2,3-dihydro-1H-benzo[d]imidazol-1-yl)piperidine-1-carboxylate], the half-inhibitory concentration (IC50) in assay [1] was 3.2 µM; in assay [2] (setting [3]) it was 384 nM.

Regarding `C[C@@H](COC(=O)N1CCC(n2c(=O)n(-c3ccccc3)c3ccccc32)CC1)N(Cc1ccccc1)Cc1ccccc1` [Compound 75, (S)-2-(dibenzylamino)propyl 4-(1,2-dihydro-2-oxo-1-phenylbenzo[d]imidazol-3-yl)piperidine-1-carboxylate], the IC50 in assay [1] was determined as 3.5 µM; in assay [2] (setting [3]) it was 2290 nM.

For the molecule `O=C(CCCC[C@@H]1SC[C@@H]2NC(=O)N[C@@H]21)NCCn1c(=O)n(C2CCN(C(=O)OC[C@H](Cc3ccccc3)N(Cc3ccccc3)Cc3ccccc3)CC2)c2ccccc21` [Compound 76, (S)-2-(dibenzylamino)-3-phenylpropyl 4-(3-(2 aminoethyl)-2-oxo-2,3-dihydro-1H-benzo[d]imidazol-1-yl)piperidine-1-carboxylate D-biotin amid], the values for the half-maximal inhibitory concentration (IC50) in assay [1] and in assay [2] (setting [3]) were 2.6 µM and 480 nM, respectively.

`CCOC(=O)CCCn1c(=O)n(C2CCN(C(=O)OC[C@H](C)N(Cc3ccccc3)Cc3ccccc3)CC2)c2ccccc21` [Compound 77, (S)-2-(dibenzylamino)propyl 4-(3-(4-ethoxy-4-oxobutyl)-2-oxo-2,3-dihydro-1H-benzo[d]imidazol-1-yl)piperidine-1-carboxylate]: the IC50 was found to be 5.7 µM in assay [1] and 600 nM in assay [2] (setting [3]).

Consider `C[C@@H](COC(=O)N1CCC(n2c(=O)n(CCCC(=O)O)c3ccccc32)CC1)N(Cc1ccccc1)Cc1ccccc1` [Compound 78, (S)-4-(3-(1-((2-(dibenzylamino)propoxy)carbonyl)piperidin-4-yl)-2-oxo-2,3-dihydro-1H-benzo[d]imidazol-1-yl)butanoic acid], for which the half-maximal inhibitory concentration (IC50) is 1.7 µM in assay [1] and 6290 nM in assay [2] (setting [3]).

Take `C[C@@H](COC(=O)N1CCC(n2c(=O)n3c4c(cccc42)C(=O)CCC3)CC1)N(Cc1ccccc1)Cc1ccccc1` [Compound 79, (S)(1-((2-(dibenzylamino)propoxy)carbonyl)piperidin-4-yl)-5,6-dihydro-imidazo[4,5,1,j,k][1]benzazepine-2,7(1H,4H)-dione]: the half-inhibitory concentration (IC50) in assay [1] was found to be 11.5 µM; in assay [2] (setting [3]), 3120 nM.

Regarding `C[C@@H](COC(=O)N1CCC(Nc2ccccc2)CC1)N(Cc1ccccc1)Cc1ccccc1` [Compound 80, (S)-2-(dibenzylamino)propyl 4-(phenylamino)piperidine-1-carboxylate], the IC50 in assay [1] was determined as 9.5 µM; in assay [2], 3410 nM.

On to `COc1ccc(NC2CCN(C(=O)OC[C@H](C)N(Cc3ccccc3)Cc3ccccc3)CC2)cc1` [Compound 81, (S)-2-(dibenzylamino)propyl 4-(4-methoxyphenylamino)piperidine-1-carboxylate], for which the values for the IC50 in assay [1] and in assay [2] (setting [3]) were 10 µM and 8420 nM, respectively.

With `COc1ccc(NC2CCN(C(=O)OC[C@H](C)N(Cc3ccccc3)Cc3ccccc3)CC2)c(OC)c1` [Compound 82, (S)-2-(dibenzylamino)propyl 4-(2,4-dimethoxyphenylamino)piperidine-1-carboxylate], the IC50 in assay [1] was 7.3 µM; in assay [2] (setting [3]), 2380 nM.

In the case of `COc1cc(NC2CCN(C(=O)OC[C@H](C)N(Cc3ccccc3)Cc3ccccc3)CC2)cc(OC)c1OC` [Compound 83, (S)-2-(dibenzylamino)propyl 4-(3,4,5-trimethoxyphenylamino)piperidine-1-carboxylate], the IC50 amounted to 16 µM in assay [1] and 3090 nM in assay [2] (setting [3]).

As for `C[C@@H](COC(=O)N1CCC(Nc2cccc(F)c2)CC1)N(Cc1ccccc1)Cc1ccccc1` [Compound 84, (S)-2-(dibenzylamino)propyl 4-(3-fluorophenylamino)piperidine-1-carboxylate], the IC50 was determined as 5.5 µM in assay [1] and 6740 nM in assay [2].

As to `C[C@@H](COC(=O)N1CCC(Nc2ccc(I)cc2)CC1)N(Cc1ccccc1)Cc1ccccc1` [Compound 85, (S)-2-(dibenzylamino)propyl 4-(4-iodophenylamino)piperidine-1-carboxylate], the values for the IC50 in assay [1] and in assay [2] were 7.65 µM and 8090 nM, respectively.

Turning to `C[C@@H](COC(=O)N1CCC(Nc2ccc(Cl)c(Cl)c2)CC1)N(Cc1ccccc1)Cc1ccccc1` [Compound 86, (S)-2-(dibenzylamino)propyl 4-(3,4-dichlorophenylamino)piperidine-1-carboxylate], the IC50 came to 3.75 µM in assay [1] and 7250 nM in assay [2].

Consider `C[C@@H](COC(=O)N1CCC(Nc2ccccc2N)CC1)N(Cc1ccccc1)Cc1ccccc1` [Compound 87, (S)-2-(dibenzylamino)propyl 4-(2-aminophenylamino)piperidine-1-carboxylate], for which the IC50 in assay [1] turned out to be 12.9 µM; in assay [2] (setting [3]), 10300 nM.

Turning to `C[C@@H](COC(=O)N1CCC(N(c2ccccc2)S(=O)(=O)c2ccccc2)CC1)N(Cc1ccccc1)Cc1ccccc1` [Compound 90, (S)-2-(dibenzylamino)propyl 4-(N-phenylphenylsulfonamido)piperidine-1-carboxylate], the IC50 in assay [1] came out at 1.75 µM; in assay [2] (setting [3]) it was 525 nM.

On to `C[C@@H](CNC(=S)N1CCC(n2c(=O)[nH]c3ccccc32)CC1)N(Cc1ccccc1)Cc1ccccc1` [Compound 91, N-((S)-2-(dibenzylamino)propyl)-4-(1,2-dihydro-2-oxobenzo[d]imidazol-3-yl)piperidine-1-carbothioamide], for which the figures for the 50% inhibitory concentration (IC50) in assay [1] and in assay [2] (setting [3]) were 7.5 µM and 2710 nM, respectively.

For `C[C@@H](CNC(=O)N1CCC(n2c(=O)[nH]c3ccccc32)CC1)N(Cc1ccccc1)Cc1ccccc1` [Compound 92, N—((S)-2-(dibenzylamino)propyl)-4-(1,2-dihydro-2-oxobenzo[d]imidazol-3-yl)piperidine-1-carboxamide], the values for the half-maximal inhibitory concentration (IC50) in assay [1] and in assay [2] (setting [3]) were 15 µM and 3470 nM, respectively.

For the molecule `C[C@@H](COC(=O)N1CCC(Nc2nc3ccccc3[nH]2)CC1)N(Cc1ccccc1)Cc1ccccc1` [Compound 93, (S)-2-(Dibenzylamino)propyl 4-(1H-benzo[d]imidazol-2-ylamino)piperidine-1-carboxylate], the half-maximal inhibitory concentration (IC50) in assay [1] came to 0.98 µM; in assay [2] (setting [3]), 180 nM.

Take `C[C@@H](COC(=O)N1CCC(Nc2nc3ccccc3n2C(=O)OC[C@H](C)N(Cc2ccccc2)Cc2ccccc2)CC1)N(Cc1ccccc1)Cc1ccccc1` [Compound 94, (S)-2-(dibenzylamino)propyl 2-(1-(((S)-2-(dibenzylamino)propoxy)carbonyl)piperidin-4-ylamino)-1H-benzo[d]imidazole-1-carboxylate]: the results for the IC50 in assay [1] and in assay [2] (setting [3]) were 9 µM and 2620 nM, respectively.

As for `C[C@@H](CNC(=N)N1CCC(n2c(=O)[nH]c3ccccc32)CC1)N(Cc1ccccc1)Cc1ccccc1` [Compound 95, N—((S)-2-(dibenzylamino)propyl)-4-(1,2-dihydro-2-oxobenzo[d]imidazol-3-yl)piperidine-1-carboxamidine], the IC50 in assay [1] came out at 11 µM; in assay [2] (setting [3]) it was 511 nM.

For `O=C(CCCN(Cc1ccccc1)Cc1ccccc1)N1CCC(n2c(=O)[nH]c3ccccc32)CC1` [Compound 96, 1-[1-(4-Dibenzylamino-butyryl)-piperidin-4-yl]-1,3-dihydrobenzoimidazol-2-one], the IC50 in assay [1] amounted to 6.3 µM; in assay [2] (setting [3]), 11300 nM.

Regarding `C[C@@H](COC(=O)N1CCC(n2c(=S)[nH]c3ccccc32)CC1)N(Cc1ccccc1)Cc1ccccc1` [Compound 97, (S)-2-(dibenzylamino)propyl 4-(1,2-dihydro-2-thioxobenzo[d]imidazol-3-yl)piperidine-1-carboxylate], the values for the IC50 in assay [1] and in assay [2] (setting [3]) were 3.5 µM and 1060 nM, respectively.

Take `O=C(OCCN(Cc1ccccc1)Cc1ccc([N+](=O)[O-])cc1)N1CCC(n2c(=O)[nH]c3ccccc32)CC1` [Compound 98, 2-(N-(4-nitrobenzyl)-N-benzylamino)ethyl 4-(1,2-dihydro-2-oxobenzo[d]imidazol-3-yl)piperidine-1-carboxylate]: the IC50 turned out to be 3.33 µM in assay [1] and 3040 nM in assay [2] (setting [3]).

By IC50 is commonly meant the concentration that inhibits the measured activity by half.

The values above are taken from patent US20100292214A1, “Compounds with Antiparasitic Activity, Applications thereof to the Treatment of Infectious Diseases Caused by Apicomplexans” (commissariat a l'Energie Atomique, priority 2007, published 2010).
